We go through 19 compounds from patent US20240109865A1, “INDAZOLE COMPOUNDS AS KINASE INHIBITORS” (TYRA BIOSCIENCES, INC., priority 2020, published 2024).

Each structure is given as a SMILES string.

Common to all, as to test: Kinase assay, binding constants (Kd), kinase-tagged T7 phage, qPCR
For one assay, the target named is FGFR1 (Homo sapiens (Human), UniProt P11362). In a few lines: (§1)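 Competition binding: kinase-tagged T7 phage lysates mixed with immobilized biotinylated ligand on streptavidin beads plus compound (11-point 3-fold dilution series, 0.9% DMSO final). Bound kinase eluted with free ligand and quantified by qPCR. Kd from Hill equation fit, slope fixed at −1.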
Another assay deals with FGFR2 (Homo sapiens (Human), UniProt P21802). In a few lines: as §1
The next assay addresses FGFR3 (Homo sapiens (Human), UniProt P22607). The essentials: as §1
A further assay addresses FGFR3 (V555M) (Homo sapiens (Human), UniProt P22607, V555M). The following applies: V555M mutant. The essentials:
as §1

The target in the next assay is FGFR4 (Homo sapiens (Human), UniProt P22455). The essentials: as §1
FGFR4, sequence (P22455 22-802): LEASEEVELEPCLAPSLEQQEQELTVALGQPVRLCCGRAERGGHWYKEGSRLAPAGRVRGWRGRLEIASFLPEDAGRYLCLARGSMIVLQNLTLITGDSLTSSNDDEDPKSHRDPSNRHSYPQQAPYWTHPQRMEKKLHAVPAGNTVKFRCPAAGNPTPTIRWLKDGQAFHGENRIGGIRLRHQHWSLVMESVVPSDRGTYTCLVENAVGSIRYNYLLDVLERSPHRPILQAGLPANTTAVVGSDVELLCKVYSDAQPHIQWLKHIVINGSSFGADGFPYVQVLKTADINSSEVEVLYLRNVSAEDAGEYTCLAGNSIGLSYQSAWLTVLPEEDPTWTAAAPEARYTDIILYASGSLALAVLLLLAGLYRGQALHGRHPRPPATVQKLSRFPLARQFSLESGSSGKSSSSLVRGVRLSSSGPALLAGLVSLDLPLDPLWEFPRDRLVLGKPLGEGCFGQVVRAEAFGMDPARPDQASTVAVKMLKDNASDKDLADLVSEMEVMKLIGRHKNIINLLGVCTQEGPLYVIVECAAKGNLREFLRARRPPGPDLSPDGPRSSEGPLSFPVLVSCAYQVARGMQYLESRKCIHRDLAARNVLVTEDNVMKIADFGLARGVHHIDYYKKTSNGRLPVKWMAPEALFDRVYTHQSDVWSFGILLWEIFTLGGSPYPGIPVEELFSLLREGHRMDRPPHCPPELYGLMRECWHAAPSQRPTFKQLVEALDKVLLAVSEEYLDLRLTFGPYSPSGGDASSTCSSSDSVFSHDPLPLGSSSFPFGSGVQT

FGFR2, sequence (P21802 22-821): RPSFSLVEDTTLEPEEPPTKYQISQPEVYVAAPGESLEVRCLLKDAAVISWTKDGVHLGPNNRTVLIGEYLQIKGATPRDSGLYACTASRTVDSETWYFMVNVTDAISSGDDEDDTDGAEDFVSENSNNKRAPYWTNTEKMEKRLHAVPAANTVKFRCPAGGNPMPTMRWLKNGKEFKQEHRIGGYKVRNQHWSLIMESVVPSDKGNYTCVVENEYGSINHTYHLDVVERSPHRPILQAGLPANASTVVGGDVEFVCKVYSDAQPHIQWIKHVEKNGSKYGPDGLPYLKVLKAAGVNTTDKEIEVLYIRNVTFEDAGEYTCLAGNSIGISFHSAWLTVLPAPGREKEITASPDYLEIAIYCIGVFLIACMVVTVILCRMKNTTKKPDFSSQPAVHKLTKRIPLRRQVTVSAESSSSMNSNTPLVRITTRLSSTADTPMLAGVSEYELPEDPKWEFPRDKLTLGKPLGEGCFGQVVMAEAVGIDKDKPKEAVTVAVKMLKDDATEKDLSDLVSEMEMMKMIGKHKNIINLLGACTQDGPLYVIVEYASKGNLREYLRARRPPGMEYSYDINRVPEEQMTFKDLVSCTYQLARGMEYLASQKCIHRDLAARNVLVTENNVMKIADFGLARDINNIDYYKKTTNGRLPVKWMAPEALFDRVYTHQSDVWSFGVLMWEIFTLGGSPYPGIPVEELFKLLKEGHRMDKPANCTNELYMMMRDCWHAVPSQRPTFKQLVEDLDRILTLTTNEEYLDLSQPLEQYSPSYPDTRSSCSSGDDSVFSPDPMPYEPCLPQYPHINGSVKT
FGFR1, sequence (P11362 22-822): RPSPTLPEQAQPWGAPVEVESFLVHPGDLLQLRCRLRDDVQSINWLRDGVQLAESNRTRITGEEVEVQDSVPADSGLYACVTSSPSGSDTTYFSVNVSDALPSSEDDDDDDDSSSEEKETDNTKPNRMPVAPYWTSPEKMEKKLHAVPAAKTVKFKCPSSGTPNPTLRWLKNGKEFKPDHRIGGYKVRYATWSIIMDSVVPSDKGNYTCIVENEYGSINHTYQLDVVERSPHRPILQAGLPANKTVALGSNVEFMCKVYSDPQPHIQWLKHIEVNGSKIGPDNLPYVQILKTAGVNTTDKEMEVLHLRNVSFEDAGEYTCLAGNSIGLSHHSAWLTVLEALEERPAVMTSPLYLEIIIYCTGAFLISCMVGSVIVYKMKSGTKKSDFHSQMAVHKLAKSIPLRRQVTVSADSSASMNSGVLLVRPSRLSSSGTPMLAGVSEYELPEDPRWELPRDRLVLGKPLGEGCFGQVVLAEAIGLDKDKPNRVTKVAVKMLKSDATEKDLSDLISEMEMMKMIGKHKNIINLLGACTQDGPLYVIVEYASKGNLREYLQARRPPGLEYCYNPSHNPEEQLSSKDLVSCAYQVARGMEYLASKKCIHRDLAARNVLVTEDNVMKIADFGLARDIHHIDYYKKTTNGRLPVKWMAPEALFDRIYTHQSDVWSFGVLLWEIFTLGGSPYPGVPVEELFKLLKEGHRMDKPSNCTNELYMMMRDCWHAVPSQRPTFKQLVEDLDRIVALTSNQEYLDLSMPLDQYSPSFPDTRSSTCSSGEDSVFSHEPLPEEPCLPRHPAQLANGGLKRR
FGFR3 (V555M), sequence (P22607 23-806 V555M): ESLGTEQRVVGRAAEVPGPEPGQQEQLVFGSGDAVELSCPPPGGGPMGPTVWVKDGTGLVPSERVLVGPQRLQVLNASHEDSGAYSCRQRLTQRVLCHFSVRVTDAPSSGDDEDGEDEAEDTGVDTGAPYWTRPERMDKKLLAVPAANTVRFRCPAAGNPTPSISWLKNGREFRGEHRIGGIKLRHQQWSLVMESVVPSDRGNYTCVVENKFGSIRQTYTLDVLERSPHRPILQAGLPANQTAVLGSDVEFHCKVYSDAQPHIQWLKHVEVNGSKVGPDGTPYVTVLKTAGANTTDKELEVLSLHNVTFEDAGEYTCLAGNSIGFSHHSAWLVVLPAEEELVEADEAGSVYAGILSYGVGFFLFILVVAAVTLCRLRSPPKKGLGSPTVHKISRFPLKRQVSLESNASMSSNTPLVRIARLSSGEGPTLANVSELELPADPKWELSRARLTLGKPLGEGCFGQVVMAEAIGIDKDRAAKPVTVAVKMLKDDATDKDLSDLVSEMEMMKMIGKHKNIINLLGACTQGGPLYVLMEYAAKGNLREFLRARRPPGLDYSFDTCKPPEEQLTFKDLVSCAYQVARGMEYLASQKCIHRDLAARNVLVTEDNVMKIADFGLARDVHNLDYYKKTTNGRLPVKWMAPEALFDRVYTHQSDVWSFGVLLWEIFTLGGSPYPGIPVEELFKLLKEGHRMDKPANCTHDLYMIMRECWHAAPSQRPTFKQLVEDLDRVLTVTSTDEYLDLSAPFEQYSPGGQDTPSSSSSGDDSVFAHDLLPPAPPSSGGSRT
FGFR3, sequence (P22607 23-806): as the sequence (P22607 23-806 V555M) above, with M533V counted along it

What is called Kd is the free concentration of one partner at which half of the binding sites on the other are occupied at equilibrium, for simple one-to-one binding. A higher Kd goes with a looser complex. With `Cc1ncc(Cl)c([C@@H](C)Oc2ccc3[nH]nc(-c4ccc(N5CC6(COC6)C5)nc4)c3c2)c1Cl` [Example 201, 6-[5-[5-[(1R)-1-(3,5-dichloro-2-methyl-4-pyridyl)ethoxy]-1H-indazol-3-yl]-2-pyridyl]-2-oxa-6-azaspiro[3.3]heptane], the dissociation constant (Kd) at FGFR1 lay within 20 to 100 nM; on FGFR2 it was 1 to 20 nM; at FGFR3, 1 to 20 nM; at FGFR3 (V555M), 1 to 20 nM; at FGFR4, 1 to 20 nM.
Turning to `COc1cc2[nH]nc(-c3ccc(N4CC5(COC5)C4)nc3)c2cc1O[C@H](C)c1c(C)cnnc1C` [Example 202, 6-[5-[5-[(1R)-1-(3,5-dimethylpyridazin-4-yl)ethoxy]-6-methoxy-1H-indazol-3-yl]-2-pyridyl]-2-oxa-6-azaspiro[3.3]heptane], the Kd at FGFR1, on FGFR2, at FGFR3, on FGFR3 (V555M) and at FGFR4 was 1 to 20 nM in each case.
For `C[C@@H](Oc1ccc2[nH]nc(-c3ccc(N4CC5(COC5)C4)nc3)c2c1)c1c(Cl)cnc(F)c1Cl` [Example 203, 6-[5-[5-[(1R)-1-(3,5-dichloro-2-fluoro-4-pyridyl)ethoxy]-1H-indazol-3-yl]-2-pyridyl]-2-oxa-6-azaspiro[3.3]heptane], the equilibrium dissociation constant (Kd) on FGFR1 is 20 to 100 nM; on FGFR2, 1 to 20 nM; at FGFR3, 1 to 20 nM; on FGFR3 (V555M), 1 to 20 nM; at FGFR4, 1 to 20 nM.
Turning to `C[C@@H](Oc1ccc2[nH]nc(-c3ccc(N4CC5(CCOC5)C4)nc3)c2c1)c1c(Cl)cnc(F)c1Cl` [Example 204, (R)-2-(5-(5-(1-(3,5-dichloro-2-fluoropyridin-4-yl)ethoxy)-1H-indazol-3-yl)pyridin-2-yl)-6-oxa-2-azaspiro[3.4]octane], the equilibrium dissociation constant (Kd) lay in the range of 20 to 100 nM at FGFR1; 1 to 20 nM at FGFR2; 1 to 20 nM at FGFR3; 1 to 20 nM on FGFR3 (V555M); 20 to 100 nM at FGFR4.
As to `Cc1cnnc(C)c1[C@@H](C)Oc1ccc2[nH]nc(-c3ccc(N4CC5(COC5)C4)nc3)c2c1` [Example 205, 6-[5-[5-[(1R)-1-(3,5-dimethylpyridazin-4-yl)ethoxy]-1H-indazol-3-yl]-2-pyridyl]-2-oxa-6-azaspiro[3.3]heptane], the Kd at FGFR1, at FGFR2, at FGFR3, at FGFR3 (V555M) and on FGFR4 was 1 to 20 nM in each case.
Take `Cc1cnnc(C)c1[C@@H](C)Oc1ccc2[nH]nc(-c3ccc(N4CC5(CCOC5)C4)nc3)c2c1` [Example 206, (R)-2-(5-(5-(1-(3,5-dimethylpyridazin-4-yl)ethoxy)-1H-indazol-3-yl)pyridin-2-yl)-6-oxa-2-azaspiro[3.4]octane]: the equilibrium dissociation constant (Kd) at FGFR1, at FGFR2, on FGFR3, on FGFR3 (V555M) and on FGFR4 was 1 to 20 nM in each case.
With `COc1cc2[nH]nc(-c3ccc(N4CC5(C4)CN(S(C)(=O)=O)C5)nc3)c2cc1O[C@H](C)c1c(Cl)cnc(C)c1Cl` [Example 207, 5-[(1R)-1-(3,5-dichloro-2-methyl-4-pyridyl)ethoxy]-6-methoxy-3-[6-(2-methylsulfonyl-2,6-diazaspiro[3.3]heptan-6-yl)-3-pyridyl]-1H-indazole], the Kd on FGFR1, at FGFR2, at FGFR3, at FGFR3 (V555M) and on FGFR4 was 1 to 20 nM each time.
Consider `COc1cc2[nH]nc(-c3ccc(N4CC(O)C4)nc3)c2cc1O[C@H](C)c1c(Cl)cnc(C)c1Cl` [Example 208, 1-[5-[5-[(1R)-1-(3,5-dichloro-2-methyl-4-pyridyl)ethoxy]-6-methoxy-1H-indazol-3-yl]-2-pyridyl]azetidin-3-ol], for which the Kd was 20 to 100 nM on FGFR1; 1 to 20 nM at FGFR2; 1 to 20 nM on FGFR3; 1 to 20 nM at FGFR3 (V555M); 1 to 20 nM on FGFR4.
In the case of `COC1(C)CN(c2ccc(-c3n[nH]c4ccc(O[C@H](C)c5c(Cl)cnc(C)c5Cl)cc34)cn2)C1` [Example 210, 5-[(1R)-1-(3,5-dichloro-2-methyl-4-pyridyl)ethoxy]-3-[6-(3-methoxy-3-methyl-azetidin-1-yl)-3-pyridyl]-1H-indazole], the Kd on FGFR1 lay within 20 to 100 nM; on FGFR2, 1 to 20 nM; at FGFR3, 1 to 20 nM; on FGFR3 (V555M), 1 to 20 nM; on FGFR4 it was 1 to 20 nM.
Consider `COc1cc2[nH]nc(-c3ccc(N4CC5(COC5)C4)nc3)c2cc1O[C@H](C)c1c(Cl)cnc(C)c1Cl` [Example 211, 6-[5-[5-[(1R)-1-(3,5-dichloro-2-methyl-4-pyridyl)ethoxy]-6-methoxy-1H-indazol-3-yl]-2-pyridyl]-2-oxa-6-azaspiro[3.3]heptane], for which the Kd on FGFR1, at FGFR2, at FGFR3, on FGFR3 (V555M) and at FGFR4 was 1 to 20 nM in each case.
For `Cc1ncc(Cl)c([C@@H](C)Oc2ccc3[nH]nc(-c4ccc(N5CC6(CCC6)C5)nc4)c3c2)c1Cl` [Example 212, 3-[6-(2-azaspiro[3.3]-heptan-2-yl)-3-pyridyl]-5-[(1R)-1-(3,5-dichloro-2-methyl-4-pyridyl)ethoxy]-1H-indazole], the Kd at FGFR1 is more than 300 nM; at FGFR2, 100 to 300 nM; at FGFR3, 20 to 100 nM; on FGFR3 (V555M) it was 1 to 20 nM; on FGFR4, 100 to 300 nM.
Regarding `COc1cc2[nH]nc(-c3cnc(N4CC5CC(C4)N5CC(C)(C)O)c(C)c3)c2cc1O[C@H](C)c1c(C)cnnc1C` [Example 214, 1-(3-(5-(5-((R)-1-(3,5-dimethylpyridazin-4-yl)ethoxy)-6-methoxy-1H-indazol-3-yl)-3-methylpyridin-2-yl)-3,6-diazabicyclo[3.1.1]heptan-6-yl)-2-methylpropan-2-ol], the Kd at FGFR1, at FGFR2, on FGFR3, at FGFR3 (V555M) and at FGFR4 was 1 to 20 nM in each case.
Consider `Cc1ncc(Cl)c([C@@H](C)Oc2ccc3[nH]nc(-c4ccc(N5CC6(CCOC6)C5)nc4)c3c2)c1Cl` [Example 216, 2-[5-[5-[(1R)-1-(3,5-dichloro-2-methyl-4-pyridyl)ethoxy]-1H-indazol-3-yl]-2-pyridyl]-6-oxa-2-azaspiro[3.4]octane], for which the Kd is 20 to 100 nM at FGFR1; 1 to 20 nM at FGFR2; 1 to 20 nM on FGFR3; 1 to 20 nM at FGFR3 (V555M); 1 to 20 nM at FGFR4.
Take `Cc1cc(-c2n[nH]c3ccc(O[C@H](C)c4c(Cl)cnc(C)c4Cl)cc23)cnc1N1CC2(CCOC2)C1` [Example 217, 2-[5-[5-[(1R)-1-(3,5-dichloro-2-methyl-4-pyridyl)ethoxy]-1H-indazol-3-yl]-3-methyl-2-pyridyl]-6-oxa-2-azaspiro[3.4]octane]: the equilibrium dissociation constant (Kd) at FGFR1 is 100 to 300 nM; at FGFR2, 20 to 100 nM; at FGFR3 it was 1 to 20 nM; on FGFR3 (V555M), 1 to 20 nM; on FGFR4, 1 to 20 nM.
As to `COc1cc2[nH]nc(-c3cnc(N4CC5(COC5)C4)c(C#N)c3)c2cc1O[C@H](C)c1c(C)cnnc1C` [Example 218, (R)-5-(5-(1-(3,5-dimethylpyridazin-4-yl)ethoxy)-6-methoxy-1H-indazol-3-yl)-2-(2-oxa-6-azaspiro[3.3]heptan-6-yl)nicotinonitrile], the Kd is 20 to 100 nM at FGFR1; 20 to 100 nM at FGFR2; 20 to 100 nM at FGFR3; 1 to 20 nM at FGFR3 (V555M); 1 to 20 nM at FGFR4.
As to `COc1cc2[nH]nc(-c3cnc(N4CC5(COC5)C4)c(C)c3)c2cc1O[C@H](C)c1c(C)cnnc1C` [Example 219, (R)-6-(5-(5-(1-(3,5-dimethylpyridazin-4-yl)ethoxy)-6-methoxy-1H-indazol-3-yl)-3-methylpyridin-2-yl)-2-oxa-6-azaspiro[3.3]heptane], the Kd on FGFR1 was in the range of 20 to 100 nM; on FGFR2, 1 to 20 nM; at FGFR3, 1 to 20 nM; at FGFR3 (V555M), 1 to 20 nM; on FGFR4, 1 to 20 nM.
Consider `COc1cc2[nH]nc(-c3ccc(N4CCCC4)nc3)c2cc1O[C@H](C)c1c(Cl)cnc(C)c1Cl` [Example 220, 5-[(1R)-1-(3,5-dichloro-2-methyl-4-pyridyl)ethoxy]-6-methoxy-3-(6-pyrrolidin-1-yl-3-pyridyl)-1H-indazole], for which the Kd at FGFR1 fell in the range of 20 to 100 nM; on FGFR2 it was 20 to 100 nM; on FGFR3, 1 to 20 nM; on FGFR3 (V555M) it was 1 to 20 nM; on FGFR4, 1 to 20 nM.
As to `Cc1ncc(Cl)c([C@@H](C)Oc2ccc3[nH]nc(-c4ccc(N5CC(C)(O)C5)nc4)c3c2)c1Cl` [Example 222, 1-[5-[5-[(1R)-1-(3,5-dichloro-2-methyl-4-pyridyl)ethoxy]-1H-indazol-3-yl]-2-pyridyl]-3-methyl-azetidin-3-ol], the Kd at FGFR1 was 20 to 100 nM; on FGFR2, 20 to 100 nM; at FGFR3 it was 1 to 20 nM; at FGFR3 (V555M), 1 to 20 nM; at FGFR4, 1 to 20 nM.
For the compound `C[C@@H](Oc1ccc2[nH]nc(-c3ccc(N4CC5(CN(CC(F)(F)F)C5)C4)nc3)c2c1)c1c(Cl)cncc1Cl` [Example 224, (R)-5-(1-(3,5-dichloropyridin-4-yl)ethoxy)-3-(6-(6-(2,2,2-trifluoroethyl)-2,6-diazaspiro[3.3]heptan-2-yl)pyridin-3-yl)-1H-indazole], the equilibrium dissociation constant (Kd) at FGFR1 was in the range of 1 to 20 nM; at FGFR2, 20 to 100 nM; on FGFR3 it was 1 to 20 nM; at FGFR3 (V555M), 1 to 20 nM; on FGFR4 it was 1 to 20 nM.
